# Measurements: patent publication US11739074B2, “Ras inhibitors” (Revolution Medicines, Inc., priority 2019, dated 2023)
# Like-named read-outs stand apart in the source and are kept apart here.
# Legend:
# KRAS G12D = KRAS G12D (Homo sapiens, UniProt P01116+P62937, G12D); assay: Ras-Raf disruption/FRET/MOA assay, KRAS G12D; format: biochemical
# Description: (§1) Disruption of B-Raf Ras-Binding Domain (BRAF^RBD) Interaction with K-Ras by Compounds of the Invention (Also Called a FRET Assay or an MOA Assay)
# (§2) Note—The following protocol describes a procedure for monitoring disruption of K-Ras G12C (GMP-PNP) binding to BRAF^RBD by a compound of the invention. This protocol may also be executed substituting other Ras proteins or nucleotides, such as K-Ras G12D and K-Ras G13D.
# (§3) The purpose of this biochemical assay was to measure the ability of test compounds to facilitate ternary complex formation between a nucleotide-loaded K-Ras isoform and Cyclophilin A; the resulting ternary complex disrupts binding to a BRAF^RBD construct, inhibiting K-Ras signaling through a RAF effector.
# (§4) In assay buffer containing 25 mM HEPES pH 7.3, 0.002% Tween20, 0.1% BSA, 100 mM NaCl and 5 mM MgCl2, tagless Cyclophilin A, His6-K-Ras-GMPPNP, and GST-BRAF^RBD were combined in a 384-well assay plate at final concentrations of 25 μM, 12.5 nM, and 50 nM, respectively. Compound was present in plate wells as a 10-point 3-fold dilution series starting at a final concentration of 30 μM. After incubation at 25° C. for 3 hours, a mixture of anti-His Eu-W1024 and anti-GST allophycocyanin was then added to assay sample wells at final concentrations of 10 nM and 50 nM, respectively, and the reaction incubated for an additional 1.5 hours. […] Compounds that facilitate disruption of a K-Ras:RAF complex were identified as those eliciting a decrease in the TR-FRET ratio relative to DMSO control wells.
# KRAS G12C = KRAS G12C (Homo sapiens, UniProt P01116+P62937, G12C); assay: Ras-Raf disruption/FRET/MOA assay, KRAS G12C; format: biochemical
# Description: as §1, §2, §3, §4
# NRAS G12C = target: T1, NRAS G12C (Homo sapiens, UniProt P01111+P62937, G12C); assay: Ras-Raf disruption/FRET/MOA assay, NRAS G12C; format: biochemical
# T1 construct: His6
# Description: as §1, §2, §3, §4
# KRAS G12S = KRAS G12S (Homo sapiens, UniProt P01116+P62937, G12S); assay: Ras-Raf disruption/FRET/MOA assay, KRAS G12S; format: biochemical
# Description: as §1, §2, §3, §4
# KRAS WT = KRAS WT (Homo sapiens, UniProt P01116+P62937); assay: Ras-Raf disruption/FRET/MOA assay, KRAS WT; format: biochemical
# Description: as §1, §2, §3, §4
# KRAS G13C = KRAS G13C (Homo sapiens, UniProt P01116+P62937, G13C); assay: Ras-Raf disruption/FRET/MOA assay, KRAS G13C; format: biochemical
# Description: as §1, §2, §3, §4
# KRAS G13D = KRAS G13D (Homo sapiens, UniProt P01116+P62937, G13D); assay: Ras-Raf disruption/FRET/MOA assay, KRAS G13D; format: biochemical
# Description: as §1, §2, §3, §4
# NCI-H358 (K-Ras G12C) = assay: CellTiter-Glo cell viability assay, H358; format: cell-based; conditions: Homo sapiens, NCI-H358, 120 h, NCI-H358, K-Ras G12C, 5-day treatment; read-out: H358 Cell Viability IC50
# How it was run: (§5)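 Luminescence from CellTiter-Glo serves as the viability read-out after cells are treated with compound for 5 days. Each well's signal is divided by the DMSO average and multiplied by 100, and curves are fitted by four-parameter logistic regression.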
# AsPC-1 (K-Ras G12D) [1] = assay: CellTiter-Glo cell viability assay, AsPC-1; format: cell-based; conditions: Homo sapiens, ASPC1, 120 h
# How it was run: as §5
# KRAS G12V = KRAS G12V (Homo sapiens, UniProt P01116+P62937, G12V); assay: Ras-Raf disruption/FRET/MOA assay, KRAS G12V; format: biochemical
# Description: as §1, §2, §3, §4
# AsPC-1 (K-Ras G12D) [2] = assay: Potency assay: pERK in AsPC-1 cells; format: cell-based; conditions: Homo sapiens
# [3] = disruption of BRAF RBD binding, with Cyclophilin A, read-out: KRAS G12D FRET IC50
# [4] = disruption of BRAF RBD binding, with Cyclophilin A, read-out: KRAS G12C FRET IC50
# [5] = NRAS G12C, read-out: NRAS G12C FRET data IC50
# [6] = disruption of BRAF RBD binding, with Cyclophilin A, read-out: KRAS G12S FRET IC50
# [7] = disruption of BRAF RBD binding, with Cyclophilin A, read-out: KRAS WT FRET IC50
# [8] = disruption of BRAF RBD binding, with Cyclophilin A, read-out: KRAS G13C FRET IC50
# [9] = disruption of BRAF RBD binding, with Cyclophilin A, read-out: KRAS G13D FRET IC50
# [10] = AsPC-1, K-Ras G12D, 5-day treatment, read-out: AsPC-1 Cell Viability IC50
# [11] = disruption of BRAF RBD binding, with Cyclophilin A, read-out: KRAS G12V FRET IC50
# [12] = ASPC1, AsPC-1 cells, K-Ras G12D, read-out: pERK EC50 (AsPC-1 KRAS G12D)
# Sequence of KRAS G13D (P01116 1-169 isoform P01116-2 G13D limits assumed): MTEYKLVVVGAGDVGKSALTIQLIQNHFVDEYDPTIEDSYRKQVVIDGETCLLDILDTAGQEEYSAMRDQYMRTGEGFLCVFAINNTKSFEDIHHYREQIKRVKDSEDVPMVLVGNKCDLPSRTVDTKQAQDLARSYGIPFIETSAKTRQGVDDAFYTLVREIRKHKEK
# Sequence of KRAS G13D (P62937 whole entry): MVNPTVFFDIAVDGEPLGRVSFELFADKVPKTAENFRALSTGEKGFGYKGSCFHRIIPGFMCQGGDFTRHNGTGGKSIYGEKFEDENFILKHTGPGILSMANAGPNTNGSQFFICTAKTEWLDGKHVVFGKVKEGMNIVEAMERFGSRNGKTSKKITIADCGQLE
# T1 sequence (P01111 whole entry G12C): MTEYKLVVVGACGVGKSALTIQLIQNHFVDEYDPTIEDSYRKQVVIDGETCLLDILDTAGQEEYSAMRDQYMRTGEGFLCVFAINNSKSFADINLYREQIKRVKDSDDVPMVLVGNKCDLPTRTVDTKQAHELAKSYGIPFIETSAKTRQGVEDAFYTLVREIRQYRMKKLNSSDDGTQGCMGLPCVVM
# T1 sequence (P62937 whole entry): as the sequence (P62937 whole entry) above
# Sequence of KRAS G12V (P01116 1-169 isoform P01116-2 G12V limits assumed): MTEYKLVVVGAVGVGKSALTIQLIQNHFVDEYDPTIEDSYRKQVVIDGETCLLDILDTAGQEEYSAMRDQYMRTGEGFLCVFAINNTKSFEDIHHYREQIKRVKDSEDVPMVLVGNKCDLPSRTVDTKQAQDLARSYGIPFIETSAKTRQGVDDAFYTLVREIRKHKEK
# Sequence of KRAS G12V (P62937 whole entry): as the sequence (P62937 whole entry) above
# Sequence of KRAS G12S (P01116 1-169 isoform P01116-2 G12S limits assumed): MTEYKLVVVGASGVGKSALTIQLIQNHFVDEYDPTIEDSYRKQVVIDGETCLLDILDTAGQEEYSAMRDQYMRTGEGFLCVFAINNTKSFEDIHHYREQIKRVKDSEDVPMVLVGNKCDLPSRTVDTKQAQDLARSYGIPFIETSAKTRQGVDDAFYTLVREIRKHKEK
# Sequence of KRAS G12S (P62937 whole entry): as the sequence (P62937 whole entry) above
# Sequence of KRAS G13C (P01116 1-169 isoform P01116-2 G13C limits assumed): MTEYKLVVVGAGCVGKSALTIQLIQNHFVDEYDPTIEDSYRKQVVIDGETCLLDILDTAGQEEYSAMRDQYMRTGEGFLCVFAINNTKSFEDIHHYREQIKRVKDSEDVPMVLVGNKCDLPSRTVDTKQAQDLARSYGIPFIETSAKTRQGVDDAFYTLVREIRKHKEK
# Sequence of KRAS G13C (P62937 whole entry): as the sequence (P62937 whole entry) above
# Sequence of KRAS G12D (P01116 1-169 isoform P01116-2 G12D limits assumed): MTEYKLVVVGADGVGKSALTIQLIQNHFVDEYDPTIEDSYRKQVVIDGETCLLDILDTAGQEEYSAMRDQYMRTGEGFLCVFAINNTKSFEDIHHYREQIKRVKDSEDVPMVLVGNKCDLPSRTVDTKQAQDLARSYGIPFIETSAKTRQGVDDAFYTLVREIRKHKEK
# Sequence of KRAS G12D (P62937 whole entry, the tested form may be a part): as the sequence (P62937 whole entry) above
# Sequence of KRAS WT (P01116 1-169 isoform P01116-2 limits assumed): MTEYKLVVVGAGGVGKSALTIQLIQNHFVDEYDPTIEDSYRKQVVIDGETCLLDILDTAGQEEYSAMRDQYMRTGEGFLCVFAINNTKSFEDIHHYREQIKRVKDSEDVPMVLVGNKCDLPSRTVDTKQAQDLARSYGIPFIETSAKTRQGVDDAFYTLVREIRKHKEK
# Sequence of KRAS WT (P62937 whole entry): as the sequence (P62937 whole entry) above
# Sequence of KRAS G12C (P01116 1-169 isoform P01116-2 G12C limits assumed): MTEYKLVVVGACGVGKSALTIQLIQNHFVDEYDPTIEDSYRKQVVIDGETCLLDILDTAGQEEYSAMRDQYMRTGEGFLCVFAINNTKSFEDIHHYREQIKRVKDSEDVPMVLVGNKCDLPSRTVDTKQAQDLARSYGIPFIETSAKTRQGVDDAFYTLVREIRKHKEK
# Sequence of KRAS G12C (P62937 whole entry): as the sequence (P62937 whole entry) above
Compound,IC50 (KRAS G12D; [3]),IC50 (KRAS G12C; [4]),IC50 (NRAS G12C; [5]),IC50 (KRAS G12S; [6]),IC50 (KRAS WT; [7]),IC50 (KRAS G13C; [8]),IC50 (KRAS G13D; [9]),IC50 (AsPC-1 (K-Ras G12D) [1]; [10]),IC50 (KRAS G12V; [11]),EC50 (AsPC-1 (K-Ras G12D) [2]; [12]),other results
CCn1c(-c2cnccc2COC)c2c3cc(ccc31)-c1cc(O)cc(c1)C[C@H](NC(=O)[C@@H](CNC1=NCCO1)C(C)C)C(=O)N1CCC[C@H](N1)C(=O)OCC(C)(C)C2 [Compound 29],1000 to 10000 nM,1000 to 10000 nM,1000 to 10000 nM,1000 to 10000 nM,1000 to 10000 nM,1000 to 10000 nM,1000 to 10000 nM,1000 to 10000 nM,1000 to 10000 nM,,IC50 (NCI-H358 (K-Ras G12C)): 1000 to 10000 nM
CCn1c(-c2cccnc2[C@H](C)OC)c2c3cc(ccc31)-c1cc(O)cc(c1)C[C@H](NC(=O)[C@H](C(C)C)N1CC[C@]3(CCCN(C(=O)[C@@H]4CN4)C3)C1=O)C(=O)N1CCC[C@H](N1)C(=O)OCC(C)(C)C2 [Compound 192],100 to 1000 nM,< 10 nM,< 10 nM,100 to 1000 nM,100 to 1000 nM,100 to 1000 nM,1000 to 10000 nM,1000 to 10000 nM,10 to 100 nM,< 5000 nM,
CCn1c(-c2cccnc2[C@H](C)OC)c2c3cc(ccc31)-c1cc(O)cc(c1)C[C@H](NC(=O)[C@H](C(C)C)N1CCC3(CCN(C(=O)[C@H]4CN4)CC3)C1=O)C(=O)N1CCC[C@H](N1)C(=O)OCC(C)(C)C2 [Compound 196],100 to 1000 nM,< 10 nM,< 10 nM,100 to 1000 nM,10 to 100 nM,10 to 100 nM,10 to 100 nM,1000 to 10000 nM,100 to 1000 nM,< 5000 nM,
"CCn1c(-c2cccnc2[C@H](C)OC)c2c3cc(ccc31)-c1cc(O)cc(c1)C[C@H](NC(=O)[C@H](C(C)C)N1CC[C@@]3(CCN(C[C@H]4CN4)C3)C1=O)C(=O)N1CCC[C@H](N1)C(=O)OCC(C)(C)C2 (single isomer, unassigned) [Example 139]",10 to 100 nM,< 10 nM,< 10 nM,10 to 100 nM,10 to 100 nM,< 10 nM,10 to 100 nM,1000 to 10000 nM,10 to 100 nM,< 5000 nM,
CCn1c(-c2cnccc2COC)c2c3cc(ccc31)-c1cc(O)cc(c1)C[C@H](NC(=O)[C@H](C(C)C)N(C)C(=O)CN(C)C(=O)[C@@H]1N[C@@H]1c1ccccc1)C(=O)N1CCC[C@H](N1)C(=O)OCC(C)(C)C2 [Compound 110],,,,,,,,,,,"IC50 (KRAS G12D): 100 to 1000 nM; EC50 (AsPC-1 (K-Ras G12D) [2]; ASPC1, read-out: pERK EC50 (AsPC-1 KRAS G12D)): < 5000 nM; IC50 (KRAS G12C): 10 to 100 nM; IC50 (NRAS G12C; NRAS G12C FRET data IC50, NRAS G12C): 10 to 100 nM; IC50 (KRAS G12S): 10 to 100 nM; IC50 (KRAS WT): 10 to 100 nM; IC50 (KRAS G13C): 100 to 1000 nM; IC50 (KRAS G13D): 100 to 1000 nM; IC50 (AsPC-1 (K-Ras G12D) [1]; read-out: AsPC-1 Cell Viability IC50, AsPC-1, K-Ras G12D, 5-day treatment): 1000 to 10000 nM; IC50 (KRAS G12V): 100 to 1000 nM"
CCn1c(-c2cccnc2[C@H](C)OC)c2c3cc(ccc31)-c1cc(O)cc(c1)C[C@H](NC(=O)[C@H](C(C)C)N1CC[C@@]3(CCCN(C(=O)[C@H]4CN4)C3)C1=O)C(=O)N1CCC[C@H](N1)C(=O)OCC(C)(C)C2 [Compound 199],100 to 1000 nM,100 to 1000 nM,100 to 1000 nM,100 to 1000 nM,100 to 1000 nM,100 to 1000 nM,100 to 1000 nM,1000 to 10000 nM,100 to 1000 nM,< 5000 nM,
